Source: the NIST ThermoML archive (doi:10.1021/je5000692)

Experiment: relative permittivity at various frequencies (dimensionless)
Details: Liquid, Frequency=0.001 MHz, Coaxial cylinder capacitor

CCCCCCCC [octane]
Details	relative permittivity
303.07 K, 5010 kPa	1.94148
303.07 K, 10050 kPa	1.94875
303.07 K, 20060 kPa	1.96184
303.07 K, 25030 kPa	1.9682
333.25 K, 5040 kPa	1.90899
333.25 K, 6780 kPa	1.91211
333.25 K, 10020 kPa	1.91777
333.25 K, 20050 kPa	1.93287
333.25 K, 25050 kPa	1.93989
373.16 K, 5040 kPa	1.85755
373.16 K, 10030 kPa	1.8684
373.16 K, 20030 kPa	1.88737
373.16 K, 25060 kPa	1.89562
398.17 K, 5010 kPa	1.8243
398.17 K, 10010 kPa	1.8374
398.17 K, 20050 kPa	1.85955
398.17 K, 25040 kPa	1.87023
